# Experimental data: patent US9873709B2 (priority 2013, dated 2018)
# Structures can show the parent of a compound that is named as a salt. Where two headings read alike, the source gives them in different places.
# Assays:
# [1] = test system: JAK1-dependent STAT6 phosphorylation downstream of IL-13 stimulation in TF-1 human erythroleukemia cells; test: cells; details: TF-1, read-out: IL-13-pSTAT6 IC50
# [2] = target: isolated recombinant JAK2 kinase domain (Homo sapiens (Human), UniProt O60674); details: read-out: JAK2 Ki
# isolated recombinant JAK2 kinase domain, sequence (O60674 849-1124): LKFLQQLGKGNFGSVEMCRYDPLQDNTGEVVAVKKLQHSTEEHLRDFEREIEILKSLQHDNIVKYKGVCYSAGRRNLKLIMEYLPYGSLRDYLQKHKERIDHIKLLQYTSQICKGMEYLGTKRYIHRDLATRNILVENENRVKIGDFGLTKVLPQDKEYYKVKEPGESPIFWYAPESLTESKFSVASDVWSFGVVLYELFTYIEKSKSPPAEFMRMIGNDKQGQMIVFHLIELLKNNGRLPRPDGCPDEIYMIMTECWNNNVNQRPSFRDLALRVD
# [3] = isolated recombinant JAK2 kinase domain, 25 μM ATP
SMILES,IC50 [1] [nM],"Ki [2, 3] [nM]",Ki [2] [nM]
"CN1CCC(N(C)C(=O)c2ccc(Nc3nc4c(N5CCC(CC(N)=O)(c6ccccc6)CC5)cccn4n3)cc2)CC1 [Example 1-30, 4-[[8-[4-(2-amino-2-oxo-ethyl)-4-phenyl-1-piperidyl]-[1,2,4]triazolo[1,5-a]pyridin-2-yl]amino]-N-methyl-N-(1-methyl-4-piperidyl)benzamide]",252,0.27,–
"CN1CCC(N(C)C(=O)c2ccc(Nc3nc4c(N5CCC(O)(c6ccccc6Cl)CC5)cccn4n3)cc2)CC1 [Example 1-35, 4-[[8-[4-(2-chlorophenyl)-4-hydroxy-1-piperidyl]-[1,2,4]triazolo[1,5-a]pyridin-2-yl]amino]-N-methyl-N-(1-methyl-4-piperidyl)benzamide]",–,27.7,–
"Cc1ccc(C2(O)CCN(c3cccn4nc(Nc5ccc(C(=O)N(C)C6CCN(C)CC6)cc5)nc34)CC2)cc1 [Example 1-39, 4-[[8-[4-hydroxy-4-(p-tolyl)-1-piperidyl]-[1,2,4]triazolo[1,5-a]pyridin-2-yl]amino]-N-methyl-N-(1-methyl-4-piperidyl)benzamide]",–,3.52,–
"COc1ccc(C2(O)CCN(c3cccn4nc(Nc5ccc(C(=O)N(C)C6CCN(C)CC6)cc5)nc34)CC2)cc1 [Example 1-40, 4-[[8-[4-hydroxy-4-(4-methoxyphenyl)-1-piperidyl]-[1,2,4]triazolo[1,5-a]pyridin-2-yl]amino]-N-methyl-N-(1-methyl-4-piperidyl)benzamide]",–,4.58,–
"CN1CCC(N(C)C(=O)c2ccc(Nc3nc4c(N5CCC(C#N)(c6ccccc6)CC5)cccn4n3)cc2)CC1 [Example 1-45, 4-[[8-(4-cyano-4-phenyl-1-piperidyl)-[1,2,4]triazolo[1,5-a]pyridin-2-yl]amino]-N-methyl-N-(1-methyl-4-piperidyl)benzamide]",–,20.4,–
"CN1CCC(N(C)C(=O)c2ccc(Nc3nc4c(N5CCc6ccccc6C5)cccn4n3)cc2)CC1 [Example 1-46, 4-[[8-(3,4-dihydro-1H-isoquinolin-2-yl)-[1,2,4]triazolo[1,5-a]pyridin-2-yl]amino]-N-methyl-N-(1-methyl-4-piperidyl)benzamide]",–,10.1,–
"CN1CCC(N(C)C(=O)c2ccc(Nc3nc4c(Oc5ccccc5)cccn4n3)cc2)CC1 [Example 1-248, N-Methyl-N-(1-methyl-piperidin-4-yl)-4-(8-phenoxy-[1,2,4]triazolo[1,5-a]pyridine-2-ylamino)-benzamide]",–,–,22.1
"CN1CCC(N(C)C(=O)c2ccc(Nc3nc4c(N5CCC(C)(C(=O)NCc6ccccc6)CC5)cccn4n3)cc2)CC1 [Example 1-259, N-benzyl-4-methyl-1-[2-[4-[methyl-(1-methyl-4-piperidyl)carbamoyl]anilino]-[1,2,4]triazolo[1,5-a]pyridin-8-yl]piperidine-4-carboxamide]",–,10.7,–
"CC(=O)NC1(C)CCN(c2cccn3nc(Nc4ccc(C(=O)N(C)C5CCN(C)CC5)cc4)nc23)CC1 [Example 1-260, 4-[[8-(4-acetamido-4-methylpiperidin-1-yl)-[1,2,4]-triazolo[1,5-a]pyridin-2-yl]amino]-N-methyl-N-(1-methylpiperidin-4-yl)benzamide]",–,16.3,–
CN1CCC(N(C)C(=O)c2ccc(Nc3nc4c(N5CCC(C)(N(C)S(=O)(=O)c6ccccc6)CC5)cccn4n3)cc2)CC1 [Example 1-261],–,3.56,–
"CN1CCC(N(C)C(=O)c2ccc(Nc3nc4c(Oc5ccc6oc(=O)n(Cc7ccccc7)c6c5)cccn4n3)cc2)CC1 [Example 1-264, 4-([8-[(3-benzyl-2-oxo-2,3-dihydro-1,3-benzoxazol-5-yl)oxy]-[1,2,4]triazolo[1,5-a]pyridin-2-yl]amino)-N-methyl-N-(1-methylpiperidin-4-yl)benzamide]",–,–,121
"CN1CCC(N(C)C(=O)c2ccc(Nc3nc4c(N5CCC(C)(NC(=O)c6ccccc6)CC5)cccn4n3)cc2)CC1 [Example 1-302, 4-[[8-(4-benzamido-4-methyl-1-piperidyl)-[1,2,4]triazolo[1,5-a]pyridin-2-yl]amino]-N-methyl-N-(1-methyl-4-piperidyl)benzamide]",–,6.37,–

# The next lines start with results.
IC50 [1] [nM],"Ki [2, 3] [nM]",SMILES,Ki [2] [nM]
767,5.15,"COC1(c2ccccc2)CCN(c2cccn3nc(Nc4ccc(C(=O)N(C)C5CCN(C)CC5)cc4)nc23)CC1 [Example 1-5, 4-[[8-(4-methoxy-4-phenyl-1-piperidyl)-[1,2,4]triazolo[1,5-a]pyridin-2-yl]amino]-N-methyl-N-(1-methyl-4-piperidyl)benzamide; hydrochloride]",–
756,23.1,"COC1CCN(c2cccn3nc(Nc4ccc(C(=O)N(C)C5CCN(C)CC5)cc4)nc23)CC1 [Example 1-8, 4-[[8-(4-methoxy-1-piperidyl)-[1,2,4]triazolo[1,5-a]pyridin-2-yl]amino]-N-methyl-N-(1-methyl-4-piperidyl)benzamide]",–
333,6.49,"CN1CCC(N(C)C(=O)c2ccc(Nc3nc4c(N5CCC(O)(c6ccc(C#N)cc6)CC5)cccn4n3)cc2)CC1 [Example 1-21, 4-[[8-[4-(4-cyanophenyl)-4-hydroxy-1-piperidyl]-[1,2,4]triazolo[1,5-a]pyridin-2-yl]amino]-N-methyl-N-(1-methyl-4-piperidyl)benzamide]",–
73.7,2.5,"CN1CCC(N(C)C(=O)c2ccc(Nc3nc4c(N5CCC(OCC#N)CC5)cccn4n3)cc2)CC1 [Example 1-23, 4-[[8-[4-(cyanomethoxy)-1-piperidyl]-[1,2,4]triazolo[1,5-a]pyridin-2-yl]amino]-N-methyl-N-(1-methyl-4-piperidyl)benzamide]",–
916,8.61,"CN1CCC(N(C)C(=O)c2ccc(Nc3nc4c(N5CCN(C(=O)N6CC(C)(C)C6)CC5)cccn4n3)cc2)CC1 [Example 1-34, 4-[[8-[4-(3,3-dimethylazetidine-1-carbonyl)piperazin-1-yl]-[1,2,4]triazolo[1,5-a]pyridin-2-yl]amino]-N-methyl-N-(1-methyl-4-piperidyl)benzamide]",–
142,4.32,"CCc1ccc(C2(O)CCN(c3cccn4nc(Nc5ccc(C(=O)N(C)C6CCN(C)CC6)cc5)nc34)CC2)cc1 [Example 1-36, 4-[[8-[4-(4-ethylphenyl)-4-hydroxy-1-piperidyl]-[1,2,4]triazolo[1,5-a]pyridin-2-yl]amino]-N-methyl-N-(1-methyl-4-piperidyl)benzamide]",–
–,1090,"CN1CCC(N(C)C(=O)c2ccc(Nc3nc4c(N5CCC(C(=O)N6CC(C)(C)C6)CC5)cccn4n3)cc2)CC1 [Example 1-42, 4-{8-[4-(3,3-Dimethyl-azetidine-1-carbonyl)-piperidin-1-yl]-1,8a-dihydro [1,2,4]triazolo[1,5a]pyridine-2-ylamino}-N-methyl-N-(1-methyl-piperidin-4-yl)-benzamide]",–
168,7.03,"COCCOc1cc(COC2CCN(c3cccn4nc(Nc5ccc(C(=O)N(C)C6CCN(C)CC6)cc5)nc34)CC2)ccn1 [Example 1-44, 4-[[8-[4-[[2-(2-methoxyethoxy)-4-pyridyl]methoxy]-1-piperidyl]-[1,2,4]triazolo[1,5-a]pyridin-2-yl]amino]-N-methyl-N-(1-methyl-4-piperidyl)benzamide]",–
–,3.8,"O=C(c1ccc(Nc2nc3c(N4CCC(O)(c5ccc(Cl)cc5)CC4)cccn3n2)cc1)N1CCN(c2ccccn2)CC1 [Example 1-112, [4-[[8-[4-(4-chlorophenyl)-4-hydroxy-1-piperidyl]-[1,2,4]triazolo[1,5-a]pyridin-2-yl]amino]phenyl]-[4-(2-pyridyl)piperazin-1-yl]methanone]",–
29.2,0.85,"CN1CCN(C2CCN(C(=O)c3ccc(Nc4nc5c(N6CCC(O)(c7ccc(Cl)cc7)CC6)cccn5n4)cc3)CC2)CC1 [Example 1-117, [4-[[8-[4-(4-chlorophenyl)-4-hydroxy-1-piperidyl]-[1,2,4]triazolo[1,5-a]pyridin-2-yl]amino]phenyl]-[4-(4-methylpiperazin-1-yl)-1-piperidyl]methanone]",–
–,2.34,"CN1CCC(N(C)C(=O)c2ccc(Nc3nc4c(N5CCC(CC#N)(C6CCCC6)CC5)cccn4n3)cc2)CC1 [Example 1-257, 4-([8-[4-(cyanomethyl)-4-cyclopentylpiperidin-1-yl]-[1,2,4]triazolo[1,5-a]pyridin-2-yl]amino)-N-methyl-N-(1-methylpiperidin-4-yl)benzamide]",–
–,2.54,"CN1CCC(N(C)C(=O)c2ccc(Nc3nc4c(N5CCC(CO)(CNCC(F)(F)F)CC5)cccn4n3)cc2)CC1 [Example 1-266, 4-([8-[4-(hydroxymethyl)-4-[[(2,2,2-trifluoroethyl)amino]methyl]piperidin-1-yl]-[1,2,4]triazolo[1,5-a]pyridin-2-yl]amino)-N-methyl-N-(1-methylpiperidin-4-yl)benzamide]",–
–,13.2,"CN1CCC(N(C)C(=O)c2ccc(Nc3nc4c(N5CCC(C(=O)O)(c6ccc(Cl)cc6)CC5)cccn4n3)cc2)CC1 [Example 1-269, 4-(4-chlorophenyl)-1-[2-([4-[methyl(1-methylpiperidin-4-yl)carbamoyl]phenyl]amino)-[1,2,4]-triazolo[1,5-a]pyridin-8-yl]piperidine-4-carboxylic acid]",–
–,110,"CN1CCC(N(C)C(=O)c2ccc(Nc3nc4c(N5CC6CC5CN6Cc5ccccc5)cccn4n3)cc2)CC1 (stereo not shown) [Example 1-293, 4-[[8-(5-benzyl-2,5-diazabicyclo[2.2.1]heptan-2-yl)-[1,2,4]triazolo[1,5-a]pyridin-2-yl]amino]-N-methyl-N-(1-methyl-4-piperidyl)benzamide]",–
–,4.98,"CN1CCC(N(C)C(=O)c2ccc(Nc3nc4c(N5CCC(C)(NS(=O)(=O)c6ccccc6)CC5)cccn4n3)cc2)CC1 [Example 1-303, 4-[[8-[4-(benzenesulfonamido)-4-methyl-1-piperidyl]-[1,2,4]triazolo[1,5-a]pyridin-2-yl]amino]-N-methyl-N-(1-methyl-4-piperidyl)benzamide]",–
–,145,"NCC1(c2ccccc2)CCN(c2cccn3nc(NC(=O)C4CC4)nc23)CC1 [Example 3-1, N-[8-[4-(aminomethyl)-4-phenyl-1-piperidyl]-[1,2,4]triazolo[1,5-a]pyridin-2-yl]cyclopropane carboxamide; hydrochloride]",–
